target: T1, Human CaV2.2 channels (Homo sapiens, UniProt Q00975); assay: Fluorescence assay for CaV2.2 channels using potassium depolarization to induce channel opening (FLIPR, Fluo 4); assay type: cell-based; conditions: 3 μM test compound; 30 mM KCl (alternative assay buffer, inactivated channel state); HEK293 cells
T1 construct: expressed in transfected cells
Excerpt: In the process, the Ca^2+ influx is quantified in the FLIPR assay with the aid of a Ca^2+-sensitive dye (type Fluo-4, Molecular Probes Europe BV, Leiden, the Netherlands) in a fluorescent imaging plate reader (FLIPR 3, Molecular Devices, Sunnyvale, USA), as described hereinafter.
2.1 Fluorescence Assay for CaV2.2 Channels Using Potassium Depolarization to Induce Channel Opening
Human CaV2.2 channels were stably expressed in HEK293 cells together with alpha2-delta and beta subunits of voltage gated calcium channels. In addition, an inwardly rectifying potassium channel (Kir2.3) was stably expressed in these cells to augment control of the cell membrane potential by the concentration of extracellular potassium ions. Raise of the extracellular potassium concentration leads to depolarization of the membrane potential and thus regulates the voltage dependent state of CaV2.2 channels. For preparation, cells were seeded in black poly-D-lysine coated 96-well plates (Becton Dickinson, Biocoat 4640) in 100 μL medium [500 mL DMEM/F-12 plus Glutamax (Invitrogen 31331-093) plus 5.5 mL MEM NEAA 100× (Invitrogen 11140-035) plus 50 mL FBS decomplemented (Invitrogen 10270-106) plus 200 μg/mL Geneticin (Invitrogen 10131-027) plus 50 μg/mL Hygromycin B (Invitrogen 10687-010) plus 2 μg/mL Blasticidin (anti-b15b Invivo-Gen) plus 0.2 μg/mL Puromycin (A 11138-03)] at a cell density of 30.000 cells per well. Plates were incubated at 37° C. (5% CO2) for 20 to 23 h. On the day of experiment medium was discarded and cells were loaded with Fluo 4 by addition of 100 μL of basic assay buffer (10 mM HEPES, 1 mM KCl, 149 mM NaCl, 0.8 mM CaCl2, 1.7 mM MgCl2, 10 mM Glucose, 0.1% BSA. pH 7.4) containing 2 μM Fluo 4 (Molecular Probes; F-14201), 0.01% pluronic acid (Molecular Probes; P-6866) and 2.5 mM probenecid (Molecular Probes; P36400). Cells were incubated in the dark at 25° C. for 60 min. Then dye containing buffer was discarded and […] basic (1 mM KCl) or alternative (30 mM KCl) assay buffer was added. The alternative assay buffer contained altered concentrations of KCl (30 mM) and NaCl (120 mM) and was used in order to promote the inactivated channel state. After that 25 μL of basic or alternative assay buffer with or without test compound were added and cells were incubated again in the dark at 25° C. for 15 min. Fluorescence intensity was measured on a FLIPR 3 instrument (Molecular Devices Corp., Sunnyvale, Calif.) with excitation at 480 nm and emission at 535 nm. After continuously reading fluorescence for 30 sec, 50 μL of basic assay buffer containing 210 mM KCl (NaCl omitted) were added for depolarization. Peak fluorescent signal intensity was determined and the amplitude of the peak signal, normalized to base line, was used to measure channel inhibition by test compounds.

T1 sequence (Q00975 whole entry): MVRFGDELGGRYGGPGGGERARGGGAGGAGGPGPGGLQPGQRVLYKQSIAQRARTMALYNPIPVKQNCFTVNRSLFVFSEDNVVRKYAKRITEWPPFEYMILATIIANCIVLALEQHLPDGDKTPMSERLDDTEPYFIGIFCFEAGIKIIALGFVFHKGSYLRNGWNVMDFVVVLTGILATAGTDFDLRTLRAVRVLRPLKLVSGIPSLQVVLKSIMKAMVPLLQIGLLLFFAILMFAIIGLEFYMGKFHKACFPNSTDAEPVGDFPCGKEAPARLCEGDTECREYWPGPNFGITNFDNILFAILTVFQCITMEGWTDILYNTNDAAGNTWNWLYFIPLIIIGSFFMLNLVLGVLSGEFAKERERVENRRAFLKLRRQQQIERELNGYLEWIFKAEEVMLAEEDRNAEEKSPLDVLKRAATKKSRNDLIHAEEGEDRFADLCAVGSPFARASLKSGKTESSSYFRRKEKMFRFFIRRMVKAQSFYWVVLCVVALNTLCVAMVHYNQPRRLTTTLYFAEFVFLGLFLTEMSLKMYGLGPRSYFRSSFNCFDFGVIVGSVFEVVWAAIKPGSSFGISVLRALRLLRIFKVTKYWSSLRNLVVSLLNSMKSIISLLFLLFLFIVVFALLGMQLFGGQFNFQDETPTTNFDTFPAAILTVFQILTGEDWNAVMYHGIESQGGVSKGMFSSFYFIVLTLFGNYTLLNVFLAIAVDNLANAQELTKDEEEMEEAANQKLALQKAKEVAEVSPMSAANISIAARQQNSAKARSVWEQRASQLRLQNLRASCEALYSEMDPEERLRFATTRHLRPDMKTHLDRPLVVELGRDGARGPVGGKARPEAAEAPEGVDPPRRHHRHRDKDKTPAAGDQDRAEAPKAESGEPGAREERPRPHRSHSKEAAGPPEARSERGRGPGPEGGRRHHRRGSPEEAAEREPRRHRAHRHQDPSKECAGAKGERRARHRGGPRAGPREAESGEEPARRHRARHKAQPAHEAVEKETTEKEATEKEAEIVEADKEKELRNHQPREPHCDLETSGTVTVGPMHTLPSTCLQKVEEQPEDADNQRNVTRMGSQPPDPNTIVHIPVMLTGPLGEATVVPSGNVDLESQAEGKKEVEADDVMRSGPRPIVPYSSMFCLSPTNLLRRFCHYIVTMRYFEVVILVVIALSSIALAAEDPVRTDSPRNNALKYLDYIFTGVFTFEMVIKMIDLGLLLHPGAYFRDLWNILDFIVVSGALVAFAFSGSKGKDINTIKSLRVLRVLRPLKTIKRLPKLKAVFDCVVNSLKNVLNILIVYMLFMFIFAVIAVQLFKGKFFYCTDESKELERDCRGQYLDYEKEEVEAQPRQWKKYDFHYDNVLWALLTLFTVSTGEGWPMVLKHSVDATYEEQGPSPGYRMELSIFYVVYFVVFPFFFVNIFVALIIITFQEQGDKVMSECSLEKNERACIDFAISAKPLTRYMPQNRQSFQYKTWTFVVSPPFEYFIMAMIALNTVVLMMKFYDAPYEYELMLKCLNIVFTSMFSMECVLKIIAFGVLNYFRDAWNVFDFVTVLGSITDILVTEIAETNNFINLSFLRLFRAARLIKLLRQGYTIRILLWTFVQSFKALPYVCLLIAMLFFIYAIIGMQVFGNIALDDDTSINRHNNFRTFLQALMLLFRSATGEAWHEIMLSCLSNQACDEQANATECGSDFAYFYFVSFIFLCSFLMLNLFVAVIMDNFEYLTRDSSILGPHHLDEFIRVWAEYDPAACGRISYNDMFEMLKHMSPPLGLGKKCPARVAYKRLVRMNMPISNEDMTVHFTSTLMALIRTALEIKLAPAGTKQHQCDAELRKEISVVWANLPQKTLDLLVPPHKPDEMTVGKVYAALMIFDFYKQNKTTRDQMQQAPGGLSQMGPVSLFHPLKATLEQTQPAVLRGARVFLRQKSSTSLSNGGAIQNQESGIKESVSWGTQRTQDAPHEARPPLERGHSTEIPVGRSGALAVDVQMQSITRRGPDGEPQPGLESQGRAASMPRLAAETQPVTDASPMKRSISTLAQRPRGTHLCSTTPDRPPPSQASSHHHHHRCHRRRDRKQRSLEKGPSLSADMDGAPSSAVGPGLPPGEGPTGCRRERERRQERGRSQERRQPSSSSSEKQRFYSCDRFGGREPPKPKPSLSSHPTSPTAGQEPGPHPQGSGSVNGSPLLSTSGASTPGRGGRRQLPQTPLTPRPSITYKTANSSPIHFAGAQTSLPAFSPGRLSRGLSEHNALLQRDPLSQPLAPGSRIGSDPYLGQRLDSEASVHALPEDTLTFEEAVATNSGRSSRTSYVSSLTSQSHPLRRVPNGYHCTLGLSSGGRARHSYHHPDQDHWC

Row | SMILES | Activity Category: %-Inhib (CaV2.2) @3 μM @30 mM KCl
1 | CC1(S(=O)(=O)c2cccc(C(F)(F)F)c2)CCOC(c2cc(C(F)(F)F)nn2CCO)C1 (stereo not drawn) [Example 2 cis-EN2, 2-[5-[4-Methyl-4-[[3-(trifluoromethyl)phenyl]sulfonyl]-tetrahydro-pyran-2-yl]-3-(trifluoromethyl)-1H-pyrazol-1-yl]-ethanol] | A (“A”: %-Inhibition >95%)
2 | COCn1nc(C(F)F)cc1C1CC(C)(S(=O)(=O)c2cccc(C(F)(F)F)c2)CCO1 (stereo not drawn) [Example 5 cis-EN2, 3-(Difluoromethyl)-1-(methoxymethyl)-5-(4-methyl-4-((3-(trifluoromethyl)phenyl)sulfonyl)tetrahydro-2H-pyran-2-yl)-1H-pyrazole] | A (“A”: %-Inhibition >95%)
3 | CC(C)(CO)n1nc(C(F)(F)F)cc1C1CC(C)(S(=O)(=O)c2cccc(C(F)(F)F)c2)CCO1 (stereo not drawn) [Example 6 cis-EN2, 2-Methyl-2-[5-[4-methyl-4-[[3-(trifluoromethyl)phenyl]sulfonyl]-tetrahydro-pyran-2-yl]-3-(trifluoromethyl)-1H-pyrazol-1-yl]-propan-1-ol] | A (“A”: %-Inhibition >95%)
4 | CC1(S(=O)(=O)c2cccc(C(F)(F)F)c2)CCOC(c2cc(C(F)(F)F)nn2CCS(C)(=O)=O)C1 (stereo not drawn) [Example 19 cis-EN1, 1-(2-Methylsulfonyl-ethyl)-5-[4-methyl-4-[[3-(trifluoromethyl)phenyl]sulfonyl]-tetrahydro-pyran-2-yl]-3-(trifluoromethyl)-1H-pyrazole] | B (“B”: %-Inhibition >75% up to ≤95%)
5 | CC1(S(=O)(=O)c2cccc(C(F)(F)F)c2)CCOC(c2cc(S(=O)(=O)C(F)F)nn2CCO)C1 (stereo not drawn) [Example 25 cis-EN2, 2-[3-(Difluoro-methylsulfonyl)-5-[4-methyl-4-[[3-(trifluoromethyl)phenyl]sulfonyl]-tetrahydro-pyran-2-yl]-1H-pyrazol-1-yl]-ethanol] | A (“A”: %-Inhibition >95%)

same assay, conditions: HEK293, 3 μM test compound; 30 mM KCl (alternative assay buffer, inactivated channel state); HEK293 cells; read-out: Activity Category: %-Inhib (CaV2.2) @3 μM @30 mM KCl

Row | SMILES | inhibition at 3 µM [%]
6 | CC1(S(=O)(=O)c2cccc(C(F)(F)F)c2)CCOC(c2cc(C(F)(F)F)nn2CCO)C1 (racemic) [Example 2 trans-rac, 2-[5-[4-Methyl-4-[[3-(trifluoromethyl)phenyl]sulfonyl]-tetrahydro-pyran-2-yl]-3-(trifluoromethyl)-1H-pyrazol-1-yl]-ethanol] | 40 to 75
7 | COCCCn1nc(C(F)(F)F)cc1C1CC(C)(S(=O)(=O)c2cccc(C(F)(F)F)c2)CCO1 (racemic) [Example 10 cis-rac, 1-(3-Methoxypropyl)-5-(4-methyl-4-((3-(trifluoromethyl)phenyl)sulfonyl)tetrahydro-2H-pyran-2-yl)-3-(trifluoromethyl)-1H-pyrazole] | > 95
8 | CC1(S(=O)(=O)c2cccc(C(F)(F)F)c2)CCOC(c2cc(C(F)(F)F)nn2CC2(N)CC2)C1 (racemic) [Example 15 cis-rac, [1-[[5-[4-Methyl-4-[[3-(trifluoromethyl)phenyl]sulfonyl]-tetrahydro-pyran-2-yl]-3-(trifluoromethyl)-1H-pyrazol-1-yl]-methyl]-cyclopropyl]-amine] | > 95
9 | CC1(S(=O)(=O)c2cccc(C(F)(F)F)c2)CCOC(c2cc(C(F)(F)F)nn2CS(C)(=O)=O)C1 (racemic) [Example 18 cis-rac, 1-(Methylsulfonyl-methyl)-5-[4-methyl-4-[[3-(trifluoromethyl)phenyl]sulfonyl]-tetrahydro-pyran-2-yl]-3-(trifluoromethyl)-1H-pyrazole] | > 95
10 | COCCn1nc(S(C)(=O)=O)cc1C1CC(C)(S(=O)(=O)c2cccc(C(F)(F)F)c2)CCO1 (racemic) [Example 23 cis-rac, 1-(2-Methoxyethyl)-5-(4-methyl-4-((3-(trifluoromethyl)phenyl)sulfonyl)tetrahydro-2H-pyran-2-yl)-3-(methylsulfonyl)-1H-pyrazole] | 75 to 95
11 | CC(CO)Cn1nc(C(F)(F)F)cc1C1CC(C)(S(=O)(=O)c2cccc(C(F)(F)F)c2)CCO1 (racemic) [Example 24 cis-rac, 2-Methyl-3-[5-[4-methyl-4-[[3-(trifluoromethyl)phenyl]sulfonyl]-tetrahydro-pyran-2-yl]-3-(trifluoromethyl)-1H-pyrazol-1-yl]-propan-1-ol] | > 95
12 | CC1(S(=O)(=O)c2cccc(C(F)(F)F)c2)CCOC(c2cc(C(F)(F)F)nn2CCO)C1 (stereo not drawn) [Example 2 cis-EN1, 2-[5-[4-Methyl-4-[[3-(trifluoromethyl)phenyl]sulfonyl]-tetrahydro-pyran-2-yl]-3-(trifluoromethyl)-1H-pyrazol-1-yl]-ethanol] | 75 to 95
13 | CC1(S(=O)(=O)c2cccc(C(F)(F)F)c2)CCOC(c2cc(S(C)(=O)=O)nn2CCO)C1 (stereo not drawn) [Example 4 cis-EN1, 2-[3-Methylsulfonyl-5-[4-methyl-4-[[3-(trifluoromethyl)phenyl]sulfonyl]-tetrahydro-pyran-2-yl]-1H-pyrazol-1-yl]-ethanol] | 40 to 75
14 | COCn1nc(C(F)F)cc1C1CC(C)(S(=O)(=O)c2cccc(C(F)(F)F)c2)CCO1 (stereo not drawn) [Example 5 cis-EN1, 3-(Difluoromethyl)-1-(methoxymethyl)-5-(4-methyl-4-((3-(trifluoromethyl)phenyl)sulfonyl)tetrahydro-2H-pyran-2-yl)-1H-pyrazole] | 75 to 95
15 | CC(C)(CO)n1nc(C(F)(F)F)cc1C1CC(C)(S(=O)(=O)c2cccc(C(F)(F)F)c2)CCO1 (stereo not drawn) [Example 6 cis-EN1, 2-Methyl-2-[5-[4-methyl-4-[[3-(trifluoromethyl)phenyl]sulfonyl]-tetrahydro-pyran-2-yl]-3-(trifluoromethyl)-1H-pyrazol-1-yl]-propan-1-ol] | 75 to 95
16 | CC1(S(=O)(=O)c2cccc(C(F)(F)F)c2)CCOC(c2cc(C(F)(F)F)nn2CCCO)C1 (stereo not drawn) [Example 9 cis-EN1, 3-[5-[4-Methyl-4-[[3-(trifluoromethyl)phenyl]sulfonyl]-tetrahydro-pyran-2-yl]-3-(trifluoromethyl)-1H-pyrazol-1-yl]-propan-1-ol] | 75 to 95
17 | CC1(S(=O)(=O)c2cccc(C(F)(F)F)c2)CCOC(c2cc(C(F)(F)F)nn2CC(N)=O)C1 (stereo not drawn) [Example 11 cis-EN1, 2-[5-[4-Methyl-4-[[3-(trifluoromethyl)phenyl]sulfonyl]-tetrahydro-pyran-2-yl]-3-(trifluoromethyl)-1H-pyrazol-1-yl]-acetamide] | 75 to 95
18 | CC1(S(=O)(=O)c2cccc(C(F)(F)F)c2)CCOC(c2cc(C(F)(F)F)nn2C2COC2)C1 (stereo not drawn) [Example 17 cis-EN1, 5-[4-Methyl-4-[[3-(trifluoromethyl)phenyl]sulfonyl]-tetrahydro-pyran-2-yl]-1-(oxetan-3-yl)-3-(trifluoromethyl)-1H-pyrazole] | 75 to 95
19 | CC1(S(=O)(=O)c2cccc(C(F)(F)F)c2)CCOC(c2cc(C(F)(F)F)nn2CCS(C)(=O)=O)C1 (stereo not drawn) [Example 19 cis-EN2, 1-(2-Methylsulfonyl-ethyl)-5-[4-methyl-4-[[3-(trifluoromethyl)phenyl]sulfonyl]-tetrahydro-pyran-2-yl]-3-(trifluoromethyl)-1H-pyrazole] | > 95
20 | CC1(S(=O)(=O)c2cccc(C(F)(F)F)c2)CCOC(c2cc(C(F)(F)F)nn2C2CS(=O)(=O)C2)C1 (stereo not drawn) [Example 20 cis-EN1, 3-[5-[4-Methyl-4-[[3-(trifluoromethyl)phenyl]sulfonyl]-tetrahydro-pyran-2-yl]-3-(trifluoromethyl)-1H-pyrazol-1-yl]-thietane-1,1-dioxide] | 75 to 95
21 | COCn1nc(C(F)(F)F)cc1C1CC(C)(S(=O)(=O)c2cccc(C(F)(F)F)c2)CCO1 (stereo not drawn) [Example 21 cis-EN1, 1-(Methoxymethyl)-5-[4-methyl-4-[[3-(trifluoromethyl)phenyl]sulfonyl]-tetrahydro-pyran-2-yl]-3-(trifluoromethyl)-1H-pyrazole] | > 95
22 | CC1(S(=O)(=O)c2cccc(C(F)(F)F)c2)CCOC(c2cc(S(=O)(=O)C(F)F)nn2CCO)C1 (stereo not drawn) [Example 25 cis-EN1, 2-[3-(Difluoro-methylsulfonyl)-5-[4-methyl-4-[[3-(trifluoromethyl)phenyl]sulfonyl]-tetrahydro-pyran-2-yl]-1H-pyrazol-1-yl]-ethanol] | 75 to 95
